According to ChEMBL document CHEMBL4665541, “Search for new therapeutic options for the uncommon pathogen Mycobacterium chimaera: an open drug discovery approach” (Lancet Microbe, 2021):

Assays:
Format in all cases: functional, organism-based
Parameters in all cases: conc 20 uM
[1] = test system: Mycobacterium tuberculosis; test: (§1) Inhibition of mycobacterial growth using the resazurin microtitre cell viability assay (REMA), compounds at final concentration of 20 µM (2% v/v DMSO). Hits were classed as compounds that inhibited bacterial growth by 70% or more compared to drug-free controls.; settings: H37Rv
[2] = test system: Mycobacteroides abscessus; test: as §1; settings: ATCC19977
[3] = test system: Mycobacterium intracellulare subsp. chimaera; test: as §1; settings: NCTC13781

| Substance | Survival [1] [%] | Survival [2] [%] | Survival [3] [%] |
| --- | --- | --- | --- |
| MMV595321 | 25.4 | 117 | 98.2 |
| MMV687239 | 68.1 | 108 | 97.5 |
| MMV676388 | 87.4 | 110 | 101 |
| MMV026313 | 82.9 | 100 | 86.2 |
| MMV687765 | 26.4 | 116 | 59 |
| MMV019790 | 90.2 | 107 | 102 |
| MMV688553 | 54 | 105 | 91.3 |
| MMV689709 | 97.3 | 114 | 91.7 |
| MMV392832 | 75.4 | 106 | 93.8 |
| MMV676411 | 16.4 | 101 | 98.2 |
| MMV007471 | 89.1 | 119 | 101 |
| MMV002817 | 90.6 | 118 | 100 |
| MMV676383 | 1.2 | 110 | 79.3 |
| MMV676439 | 91.7 | 114 | 34.7 |
| MMV676877 | 90.2 | 107 | 106 |
| MMV688362 | 103 | 109 | 90.2 |
| MMV688360 | 100 | 100 | 94.3 |
| MMV676431 | 81.5 | 115 | 98.6 |
| MMV687798 | 7.23 | 11.5 | 1.47 |
| MMV676050 | 84.8 | 110 | 95.8 |
| MMV675994 | 81.9 | 105 | 108 |
| MMV010545 | 91.4 | 111 | 86.4 |
| MMV676554 | 29.4 | 109 | 41.2 |
| MMV676445 | 30 | 111 | 74.2 |
| MMV688773 | 82.8 | 122 | 94.7 |
| MMV689029 | 86.9 | 119 | 93.5 |
| MMV688768 | 87 | 109 | 93.9 |

| Substance | Survival [1] [%] | Survival [2] [%] | Survival [3] [%] |
| --- | --- | --- | --- |
| MMV1029203 | 128 | 116 | 125 |
| MMV020289 | 86.3 | 113 | 103 |
| MMV047015 | 52.2 | 111 | 85.3 |
| MMV687273 | 31.5 | 111 | 110 |
| MMV688704 | 92.8 | 106 | 98.7 |
| MMV676398 | 92 | 111 | 99.3 |
| MMV676159 | 99.4 | 106 | 100 |
| MMV688416 | 99.5 | 103 | 94.7 |
| MMV688844 | 15.4 | 11.7 | 4.25 |
| MMV146306 | 96.1 | 107 | 96.2 |
| MMV689061 | 122 | 118 | 127 |
| MMV676600 | 91.1 | 125 | 90.1 |
| MMV688793 | 89.7 | 114 | 101 |
| MMV689060 | 104 | 119 | 109 |
| MMV688990 | 98.5 | 103 | 102 |
| MMV688411 | 90 | 114 | 89.9 |
| MMV676442 | 86.8 | 123 | 97.1 |
| MMV688776 | 127 | 115 | 100 |
| MMV019551 | 77.8 | 103 | 90.1 |
| MMV687254 | 106 | 113 | 107 |
| MMV687700 | 84.1 | 107 | 88 |
| MMV676270 | 82.7 | 108 | 102 |
| MMV688125 | 13.8 | 114 | 107 |
| MMV688938 | 119 | 118 | 88.3 |
| MMV019234 | 78.1 | 125 | 92.9 |
| MMV688345 | 86 | 113 | 86.9 |
| MMV658993 | 83.9 | 101 | 100 |

| Substance | Survival [1] [%] | Survival [2] [%] | Survival [3] [%] |
| --- | --- | --- | --- |
| MMV016136 | 107 | 118 | 108 |
| MMV024311 | 74.4 | 96.6 | 106 |
| MMV687775 | 91 | 122 | 98.2 |
| MMV687696 | 44.7 | 109 | 75.7 |
| MMV688122 | 2.87 | 111 | 96.7 |
| MMV687243 | 87.1 | 113 | 106 |
| MMV676350 | 94.9 | 116 | 105 |
| MMV688921 | 110 | 110 | 109 |
| MMV085210 | 82.8 | 115 | 88.2 |
| MMV012074 | 53.4 | 110 | 88.4 |
| MMV688795 | 77.7 | 105 | 105 |
| MMV688978 | 5.27 | 106 | 105 |
| MMV028694 | 88.7 | 113 | 91.4 |
| MMV676008 | 99.7 | 123 | 116 |
| MMV003152 | 92.7 | 111 | 96.7 |
| MMV019807 | 97.4 | 116 | 118 |
| MMV687730 | 71.2 | 18.8 | 87.3 |
| MMV688330 | 99.6 | 99.9 | 103 |
| MMV676558 | 90.9 | 110 | 100 |
| MMV011229 | 92.6 | 97.3 | 94 |
| MMV676599 | 88.2 | 115 | 102 |
| MMV102872 | 18.3 | 114 | 97.7 |
| MMV688994 | 13.7 | 101 | 80 |
| MMV687180 | 74.6 | 107 | 105 |
| MMV676474 | 60.1 | 99 | 88.6 |
| MMV675995 | 90.8 | 111 | 97.4 |
